The test system of this assay is tail lymphedema. Description: Oral administration, tail lymphedema, gross tail volume. The note with it: oral gavage in sunflower oil for 6 weeks. It is filed as in vivo, BALB/c mice.

Structures are written as SMILES.

Description: Oral administration experiments were performed on 30 adult BALB/c mice, 12 to 14 weeks old, and weighing between 21 and 30 g. Surgical excision of lymphatic vessels at 20-mm from the base of the tail was performed in order to induce secondary lymphedema. Mice receive 9-cis RA dissolved in sunflower oil via oral gavage for 6 weeks in accordance to the dosing regimes in Table 3.

On to `CC1=C(/C=C/C(C)=C\C=C\C(C)=C\C(=O)O)C(C)(C)CCC1` [9-cis RA, 9-cis retinoic acid], for which the “change in gross tail volume” value reads like this: (high dose 30 mg/kg) “decreases change in gross tail volume”; (low dose 10 mg/kg, 10 mg/kg) “decreases change in gross tail volume”; (low dose 10 mg/kg, listed as 9-cis retinoic acid, 10 mg/kg) “most effective for preventing post-surgical tail lymphedema”.

The values are drawn from US12329852B2, “Sustained-release 9-cis retinoic acid implantable drug delivery pellets for the prevention of postsurgical edema and lymphedema” (UNIVERSITY OF SOUTHERN CALIFORNIA, priority 2019, dated 2025).
